Where a name gives a salt, the structure may show the parent alone. Read-outs that look alike come from different tables or passages of the source.
Tests used:
in vitro [1] = conditions: African green monkey
DENV-2 16681 strain = assay: DENV-2 antiviral assay (eGFP fluorescence); format: cell-based, Dengue virus; conditions: DENV-2 16681 eGFP, Vero cells, MOI 0.5, 3 days
Experimental: The antiviral activity of all the compounds of the invention was tested against the DENV-2 16681 strain which was labeled with enhanced green fluorescent protein (eGPF). The culture medium consists of minimal essential medium supplemented with 2% of heat-inactivated fetal calf serum, 0.04% gentamycin (50 mg/mL) and 2 mM of L-glutamine. Vero cells, obtained from ECACC, were suspended in culture medium and 25 μL was added to 384-well plates (2500 cells/well), which already contain the antiviral compounds. Typically, these plates contain a 5-fold serial dilution of 9 dilution steps of the test compound at 200 times the final concentration in 100% DMSO (200 nL). […] Finally, each plate contains wells which are assigned as virus controls (containing cells and virus in the absence of compound), cell controls (containing cells in the absence of virus and compound) and medium controls (containing medium in the absence of cells, virus and compounds). To the wells assigned as medium control, 25 μL of culture medium was added instead of Vero cells. Once the cells were added to the plates, the plates were incubated for 30 minutes at room temperature to allow the cells to distribute evenly within the wells. Next, the plates were incubated in a fully humidified incubator (37° C., 5% CO2) until the next day. Then, DENV-2 strain 16681, labeled with eGFP, was added at a multiplicity of infection (MOI) of 0.5. Therefore, 15 μL of virus suspension was added to all the wells containing test compound and to the wells assigned as virus control. In parallel, 15 μL of culture medium was added to the medium and cell controls. Next, the plates were incubated for 3 days in a fully humidified incubator (37° C., 5% CO2). At the day of the read out, the eGFP fluorescence was measured using an automated fluorescence microscope at 488 nm (blue laser). Using an in-house LIMS system, inhibition dose response curves for each compound were calculated and the half maximal effective concentration (EC50) was determined. Therefore, the percent inhibition (I) for every test concentration is calculated using the following formula: I=100*(ST-SCC)/(SVC-SCC); ST, SCC and SVC are the amount of eGFP signal in the test compound, cell control and virus control wells, respectively. The EC50, represents the concentration of a compound at which the virus replication is inhibited with 50%, as measured by a 50% reduction of the eGFP fluorescent intensity compared to the virus control. The EC50 is calculated using linear interpolation (Table 1).

DENV-3 strain H87 = assay: Tetravalent RT-qPCR assay, serotype 3; format: cell-based; conditions: Dengue virus, DENV3, 72 h; RT-qPCR serotype 3 H87, Protocol A, Vero cells, day 3
Experimental: (§1) The antiviral activity of the compounds of the invention was tested against DENV-1 strain TC974#666 (NCPV), DENV-2 strain 16681, DENV-3 strain H87 (NCPV) and DENV-4 strain H241 (NCPV) in a RT-qPCR assay. Therefore, Vero cells were infected with either DENV-1, or -2, or -3, or -4 in the presence or absence of test compounds. At day 3 post-infection, the cells were lysed and cell lysates were used to prepare cDNA of both a viral target (the 3′UTR of DENV; Table 2) and a cellular reference gene (β-actin, Table 2). Subsequently, a duplex real time PCR was performed on a Lightcycler480 instrument. The generated Cp value is inversely proportional to the amount of RNA expression of these targets. Inhibition of DENV replication by a test compound results in a shift of Cp's for the 3′UTR gene. On the other hand, if a test compound is toxic to the cells, a similar effect on β-actin expression will be observed. The comparative ΔΔCp method is used to calculate EC50, which is based on the relative gene expression of the target gene (3′UTR) normalized with the cellular housekeeping gene (β-actin). In addition, CC50 values are determined based on the Cp values acquired for the housekeeping gene β-actin.
(§2) The culture medium consisted of minimal essential medium supplemented with 2% of heat-inactivated fetal calf serum, 0.04% gentamycin (50 mg/mL) and 2 mM of L-glutamine. Vero cells, obtained from ECACC, were suspended in culture medium and 75 μL/well was added in 96-well plates (10000 cells/well), which already contain the antiviral compounds. […] In addition, each plate contains wells which are assigned as virus controls (containing cells and virus in the absence of compound) and cell controls (containing cells in the absence of virus and compound). Once the cells were added in the plates, the plates were incubated in a fully humidified incubator (37° C., 5% CO2) until the next day. Dengue viruses serotype-1, -2, -3 and -4 were diluted in order to obtain a Cp of ˜22-24 in the assay. Therefore, 25 μL of virus suspension was added to all the wells containing test compound and to the wells assigned as virus control. In parallel, 25 μL of culture medium was added to the cell controls. Next, the plates were incubated for 3 days in a fully humidified incubator (37° C., 5% CO2). After 3 days, the supernatant was removed from the wells and the cells were washed twice with ice-cold PBS (˜100 μL). The cell pellets within the 96-well plates were stored at −80° C. for at least 1 day. Next, RNA was extracted using the Cells-to-CT^Tm lysis kit, according to the manufacturer's guideline (Life Technologies). The cell lysates can be stored at −80° C. or immediately used in the reverse transcription step.
(§3) In preparation of the reverse transcription step, mix A (table 3A) was prepared and 7.57 μL/well was dispensed in a 96-well plate. After addition of 5 μL of the cell lysates, a five minute denaturation step at 75° C. was performed (table 3B). Afterwards, 7.43 μL of mix B was added (table 3C) and the reverse transcription step was initiated (table 3D) to generate cDNA.
(§4) Finally, a RT-qPCR mix was prepared, mix C (table 4A), and 22.02 μL/well was dispensed in 96-well LightCycler qPCR plates to which 3 μL of cDNA was added and the qPCR was performed according to the conditions in table 4B on a LightCycler 480.
(§5) Using the LightCycler software and an in-house LIMS system, dose response curves for each compound were calculated and the half maximal effective concentration (EC50) and the half maximal cytotoxic concentration (CC50) were determined (Tables 5-8).

DENV-2 strain 16681 = assay: Tetravalent RT-qPCR assay, serotype 2; format: cell-based; conditions: Dengue virus, DENV2, 72 h; RT-qPCR serotype 2 16681, Protocol A, Vero cells, day 3
Experimental: as §1, §2, §3, §4, §5

DENV-1 strain TC974#666 = assay: Tetravalent RT-qPCR assay, serotype 1; format: cell-based; conditions: Dengue virus, DENV1, Vero, 72 h
Experimental: as §1, §2, §3, §4, §5

Vero cells [2] = conditions: African green monkey
DENV-4 strain H241 = assay: Tetravalent RT-qPCR assay, serotype 4; format: cell-based; conditions: Dengue virus, DENV4, 72 h; RT-qPCR serotype 4 H241, Protocol A, Vero cells, day 3
Experimental: as §1, §2, §3, §4, §5

in vitro [3] = format: cell-based; conditions: African green monkey, CC50
Experimental: as §1, with “The comparative ΔΔCp method is used to calculate EC50, which is based on the relative gene expression of the target gene (3′UTR) normalized with the cellular housekeeping gene (β-actin).” left out, “β-actin. […]” for “β-actin.”
as §5

Vero cells [4] = assay: in vitro; format: cell-based; conditions: African green monkey, 3 days
Experimental: as §1, with “The comparative ΔΔCp method is used to calculate EC50, which is based on the relative gene expression of the target gene (3′UTR) normalized with the cellular housekeeping gene (β-actin).” left out, “β-actin. […]” for “β-actin.”
as §5

DENV-2 = conditions: analogous DENV-2 antiviral assay, reported activity; cited from earlier work

COc1cc(NC(C(=O)N2CCc3ccc(C(F)(F)F)cc32)c2ccc(Cl)cc2F)cc(OCCCC(=O)O)c1 (racemic) (as salt: HCl) [Compound 9, 4-(3-((1-(4-chloro-2-fluorophenyl)-2-oxo-2-(6-(trifluoromethyl)indolin-1-yl)ethyl)amino)-5-methoxy-phenoxy)butanoic acid]
melting point: 110 °C

COc1cc(NC(C(=O)N2CCc3cc(OC)c(C(F)(F)F)cc32)c2ccc(Cl)cc2F)cc(OCCCC(=O)O)c1 (racemic) (as salt: HCl) [Compound 11, 4-(3-((1-(4-chloro-2-fluorophenyl)-2-(5-methoxy-6-(trifluoromethyl)indolin-1-yl)-2-oxoethyl)amino)-5-methoxyphenoxy)butanoic acid]
melting point: 121 °C

COc1cc(NC(C(=O)N2CCc3ccc(C(F)(F)F)cc32)c2ccc(Cl)cc2)cc(OCCCC(=O)O)c1 (racemic) [Compound 3, 4-(3-((1-(4-chlorophenyl)-2-oxo-2-(6-(trifluoromethyl)indolin-1-yl)ethyl)amino)-5-methoxyphenoxy)butanoic acid]
CC50 (in vitro [1]): 13000 nM | melting point: 192 °C | EC50 (DENV-2 16681 strain; Dengue virus, DENV2, Vero, 72 h): 0.48 nM

COc1cc(NC(C(=O)N2CCc3ccc(C(F)(F)F)cc32)c2ccc(Cl)cc2OC)cc(OCCCC(=O)O)c1 (single isomer, unassigned) [Compound 6B]
EC50 (DENV-3 strain H87): 1.7 nM | EC50 (DENV-2 strain 16681): 0.15 nM | EC50 (DENV-1 strain TC974#666): 0.47 nM | CC50 (Vero cells [2]): 13000 nM | EC50 (DENV-2 16681 strain): 0.13 nM | EC50 (DENV-4 strain H241): 16 nM | CC50 at 3 days (in vitro [3]): > 2500 nM | CC50 (Vero cells [4]): > 2500 nM

COc1cccc(NC(C(=O)N2CCc3ccccc32)c2ccccc2)c1 (stereo not drawn) [(56) of WO-2013/045516]
EC50 (DENV-2): 450 nM

CNC(=O)c1cccc(NC(C(=O)c2c[nH]c3ccccc23)c2ccccc2)c1 (stereo not drawn) [(170) of WO-2013/045516]
EC50 (DENV-2): 440 nM
